# Key:
# [1] = test system: Vibrio campbellii BAA 1118 (AI-1); test: microbe, parasite or virus in culture; assay type: cell-based; conditions: Vibrio campbellii, BAA1118, 16 h, read-out: EC50 (concentration that halved the communication)
# Excerpt: (§1) Commercially available strains of Vibrio campbellii were used to evaluate the ability of flavonoids and their derivatives to inhibit bacterial quorum sensing. V. campbellii uses two types of autoinducing molecules for its communication—N-acyl-homoserine lactones (Autoinducer I, AI-1, strain BAA 1118) and furanosyl borate diester (Autoinducer II, AI-2, strain BAA 1119). AI-1-based communication is mainly used by Gram-negative bacteria, while AI-2-based communication is found in both Gram-negative and Gram-positive bacteria. The mutant strains of V. campbellii BA1118 and BA1119 respond only to AI-1 or AI-2, respectively, and the response to the respective AI concentration is measured as luminescence. The higher the AI concentration, the higher the luminescence signal. The ability to inhibit the communication was expressed as the selectivity index (SI), calculated as the ratio between the concentration that halved the viability (IC50) and the concentration that halved the communication (EC50) of the respective V. campbellii strains. […] The antimicrobial activity of quorum-sensing inhibitors is undesirable because it creates a selection pressure and can lead to the development of resistance.
# (§2) The inhibition of bacterial extracellular communication was measured using Vibrio campbellii strains BAA-1118 and BAA-1119. The experiment was performed according to the methods of Szemerédi et al.. Briefly, 5 × 10^5 CFU/mL (colony-forming units per milliliter) were seeded in an Autoinducer Bioassay medium (NaCl 17.5 g/L, MgSO4 12.3 g/L, Casamino acids 2 g/L, 10 mL of 1 M potassium phosphate pH 7.0, 10 mL of 0.1 M L-arginine, and 10 mL of glycerol in 970 mL of deionized water) in a 96-well plate. Immediately, the tested compounds were added at the final concentration of 0.2–200 µM and luminescence was recorded for 16 h by a SpectraMax i3x microplate reader set at 30 °C, an integration time of 10,000 ms, and shaking for 60 s before measurement. […] The selectivity index was calculated as the […]. The EC50 and IC50 were calculated using GraphPad Prism software version 5.00 for Windows with a nonlinear regression curve fit.
# [2] = test system: Vibrio campbellii BAA 1119 (AI-2); test: microbe, parasite or virus in culture; assay type: cell-based; conditions: for EC50: Vibrio campbellii, BAA1119, 16 h, read-out: EC50 (concentration that halved the communication)
# Excerpt: as §1, §2
# [3] = test system: lipopolysaccharide-stimulated macrophages (RAW 264.7); test: Inhibition of nitric oxide production (Griess reagent); assay type: cell-based, murine; conditions: Mus musculus, RAW264.7; LPS 100 ng/mL, 24 h; highest tested concentration 100 µM; read-out: NO Production IC50
# Method: The anti-inflammatory activity of the tested flavonolignans was determined as the ability to reduce nitric oxide production by murine macrophages (RAW 264.7) stimulated by bacterial lipopolysaccharides, as previously described. […] For the experiment, 1 × 10^6 cells/mL was seeded into the 96-well plate (100 µL/well). […] After 24 h, the medium was mixed with Griess reagent (0.04 g/mL), prepared freshly in deionized water at the ratio of 1:1. The absorbance was measured after 15 min at 540 nm by the SpectraMax i3x microplate reader. Cell viability was determined by resazurin assay.
# [4] = Ferric reducing antioxidant power (FRAP); conditions: Fe2+ equivalents
# Method: (§3) To further elucidate how halogenation affects other properties of the flavonoids studied, their 2,2′-azino-bis-(3-ethylbenzothiazoline-6-sulfonic acid) cation (ABTS) and 1,1-diphenyl-2-picrylhydrazyl (DPPH) radical scavenging, the Folin–Ciocalteu reagent (FCR) reducing, the ferric-reducing antioxidant power (FRAP), and the anti-lipoperoxidation activities were evaluated by in vitro methods (Supplementary Information Tables S1 and S2).
# (§4) The antiradical activity was evaluated by the ability to scavenge ABTS and DPPH radicals. Reducing capacity was assessed by the ability to reduce the Folin–Ciocalteu reagent (FCR) and ferric ions (FRAP). The ability to inhibit lipid peroxidation of pooled male rat microsomal liver membranes induced by tert-butyl hydroperoxide was also evaluated and the results were expressed as IC50 values.
# [5] = test system: multidrug-resistant P. aeruginosa; test: Sensitization of antibiotic-resistant bacteria (compound plus breakpoint antibiotic concentration); assay type: cell-based, Pseudomonas aeruginosa; conditions: flavonoid 40 µM, 24 h; for Effect on viability in combination with imipenem: imipenem 4 mg/L; as to Effect on viability in combination with imipenem: key: -: no effect (100% viability) was observed up to the highest flavonolignan concentration tested (>40 µM); reversion of resistance: the compound reversed the resistant phenotype to a sensitive one
# Method: (§5) Clinically relevant antibiotics were selected for sensitization testing according to the European Committee on Antimicrobial Susceptibility Testing (EUCAST). Neither colistin and imipenem at breakpoint concentrations (according to EUCAST, […] and […]) affected the growth of the multidrug-resistant clinical strain of P. aeruginosa. Similarly, neither chloramphenicol and gentamicin at breakpoint concentrations ([…], respectively) affected the multidrug-resistant clinical strain of S. aureus. Flavonoids and their derivatives (1–40 µM) were used in combination therapy, along with the breakpoint concentration of antibiotics. After co-incubation, the minimum inhibitory concentration of flavonoids inhibiting the visible growth of bacteria was determined (Table 2).
# (§6) Clinical isolates of P. aeruginosa and S. aureus were obtained from the General University Hospital in Prague (Prague, Czech Republic). P. aeruginosa was resistant to ciprofloxacin, oxacillin, ticarcillin, colistin, gentamicin, and imipenem. S. aureus was resistant to ciprofloxacin, gentamicin, erythromycin, chloramphenicol, clindamycin, oxacillin, cefotaxime, and vancomycin. Bacteria were cultivated in Mueller–Hinton broth (MH broth, Merck). The susceptibility of the bacteria was evaluated by the minimum inhibitory concentrations (MIC). The MIC of derivatives in the presence of the antibiotic cut-off concentration was determined according to ISO 20776-1: 2020. The antibiotic cut-off concentration was chosen according to the European Committee on Antimicrobial Susceptibility Testing (EUCAST, Clinical breakpoints—bacteria (ver. 11.0), 1 January 2021). The 40 µM concentration of the derivatives was chosen as the highest concentration for the tests. Cell viability was determined by measuring absorbance (A590 nm) after 24 h incubation at 37 °C, 150 rpm.
# [6] = test system: pooled male rat microsomal liver membranes; test: Inhibition of lipid peroxidation induced by tert-butyl hydroperoxide; assay type: biochemical; conditions: male rat microsomes, read-out: ILP IC50
# Method: as §4
# [7] = Folin-Ciocalteu reagent reduction; conditions: gallic acid equivalents
# Method: as §3, §4
# [8] = test system: human dermal fibroblasts (HDF); test: Cytotoxicity (resazurin assay, 72 h); assay type: cell-based; conditions: Fibroblast
# Method: (§7) The cytotoxicity of flavonoids and their halogenated derivatives was determined as their ability to decrease the viability of human dermal fibroblasts (HDF) and doxorubicin-resistant human ovarian carcinomas (HOC/DOX). Both cell lines were cultivated in Dulbecco’s Modified Eagle’s Medium supplemented with fetal bovine serum (FBS, 10% v/v) and 1 × antibiotic antimycotic solution and incubated at 37 °C in the atmosphere of 5% CO2. The experiment was performed according to a previously published method. Briefly, 1 × 10^5 cells/mL were seeded into a 96-well plate (100 µL/well). After 24 h, flavonoids and their derivatives were administered at the concentration range of 31.25–500 µM. After 72 h, the viability was determined by resazurin assay (0.03 mg/mL of resazurin in PBS), where the fluorescence was measured after 2 h of incubation by the SpectraMax i3x microplate reader at a wavelength of 560/590 nm (excitation/emission). The concentration inhibiting half of the population (IC50) was determined using nonlinear regression in GraphPad Prism software. The selectivity index was calculated as the ratio between the IC50 for HDF (control, non-cancerous cells) and the IC50 for HOC/DOX (cancer cells).
# [9] = test system: doxorubicin-resistant human ovarian carcinoma (HOC/DOX); test: Cytotoxicity (resazurin assay, 72 h); assay type: cell-based; conditions: for IC50: Homo sapiens, 72 h, resazurin assay; for SI (selectivity index): ratio IC50 for HDF / IC50 for HOC/DOX
# Method: as §7
# [10] = test system: Vibrio campbellii BAA 1118 (AI-1); test: Viability of the quorum-sensing reporter culture (resazurin assay), AI-1 strain; assay type: cell-based; conditions: BAA1118, V. campbellii BAA 1118, resazurin assay, read-out: IC50 (concentration that halved the viability)
# Excerpt: as §1, §2
# [11] = test system: Vibrio campbellii BAA 1119 (AI-2); test: Viability of the quorum-sensing reporter culture (resazurin assay), AI-2 strain; assay type: cell-based; conditions: BAA1119, V. campbellii BAA 1119, resazurin assay, read-out: IC50 (concentration that halved the viability)
# Excerpt: as §1, §2
# [12] = ABTS cation radical scavenging; conditions: vitamin C equivalent antioxidant capacity
# Method: as §3, §4
# DPPH radical scavenging = conditions: 1,1-diphenyl-2-picrylhydrazyl radical scavenging
# Method: as §3, §4
# [13] = test system: multidrug-resistant S. aureus; test: Sensitization of antibiotic-resistant bacteria (compound plus breakpoint antibiotic concentration); assay type: cell-based, Staphylococcus aureus; conditions: flavonoid 40 µM, 24 h; for Effect on viability in combination with chloramphenicol: chloramphenicol 8 mg/L
# Method: as §5, §6
# [14] = test system: S. aureus biofilm formation; design: method as in PMID 28365326; conditions: cited from earlier work
# breast cancer cell lines = test system: breast cancer cell lines; design: method as in PMID 23962161; conditions: cited from earlier work
compound,measurement,setting,value
"COc1cc([C@@H]2Oc3c(O)cc([C@H]4Oc5c(Br)c(O)c(Br)c(O)c5C(=O)[C@@H]4O)cc3[C@H]2CO)ccc1O [compound 15, 6,8-Dibromosilychristin A]",EC50,[1],> 200 µM
same,EC50,[2],> 200 µM
same,IC50,[3],> 100 µM
same,FRAP [Fe2+eq],[4],0.34 ± 0.03 Fe2+eq
same,Effect on viability in combination with colistin,[5]; colistin 2 mg/L,-
same,Effect on viability in combination with imipenem,[5],-
same,IC50,[6],459 µM
same,FCR [GAE],[7],2.03 ± 0.05 GAE
same,IC50,[8],176 µM
same,IC50,[9],249 µM
same,SI (selectivity index),[9],0.71
same,IC50,[10],> 200 µM
same,IC50,[11],> 200 µM
same,ABTS [CEAC],[12],1.28 ± 0.02 CEAC
same,IC50,DPPH radical scavenging,106 µM
same,Effect on viability in combination with chloramphenicol,[13],-
"COc1cc(C2Oc3cc(-c4oc5c(Br)c(O)c(Br)c(O)c5c(=O)c4O)ccc3OC2CO)ccc1O (stereo not drawn) [compound 17, 6,8-dibromo-2,3-dehydrosilybin AB]",EC50,[1],55.5 ± 1.6 µM
same,EC50,[2],4.1 ± 0.2 µM
same,SI (selectivity index),"[2]; ratio IC50 (viability) / EC50 (communication), BAA 1119",31.2 ± 3.5
same,IC50,[3],44.4 ± 2.4 µM
same,FRAP [Fe2+eq],[4],0.54 ± 0.04 Fe2+eq
same,Effect on viability in combination with imipenem,[5],-
same,IC50,[6],56.7 ± 1.6 µM
same,FCR [GAE],[7],1.50 ± 0.02 GAE
same,IC50,[8],41.7 ± 1 µM
same,IC50,[9],91.3 ± 1.6 µM
same,SI (selectivity index),[9],0.46
same,IC50,[10],> 200 µM
same,IC50,[11],127 ± 7.4 µM
same,ABTS [CEAC],[12],1.49 ± 0.04 CEAC
same,IC50,DPPH radical scavenging,11.7 µM
same,Effect on viability in combination with chloramphenicol,[13],-
same,Effect on viability in combination with gentamicin,[13]; gentamicin 1 mg/L,-
"COc1cc([C@@H]2Oc3c(O)cc([C@H]4Oc5c(I)c(O)c(I)c(O)c5C(=O)[C@@H]4O)cc3[C@H]2CO)ccc1O [compound 27, 6,8-diiodosilychristin A]",FRAP [Fe2+eq],[4],0.21 ± 0.01 Fe2+eq
same,IC50,[6],97.2 ± 3.5 µM
same,FCR [GAE],[7],1.79 ± 0.05 GAE
same,ABTS [CEAC],[12],1.13 ± 0.01 CEAC
same,IC50,DPPH radical scavenging,168 µM
COc1ccc([C@@H]2CC(=O)c3c(O)cc(O)cc3O2)cc1O [hesperetin],Concentration inhibiting S. aureus biofilm formation,[14],≤ 4 µM
O=c1c(O)c(-c2cc(O)c(O)c(O)c2)oc2cc(O)cc(O)c12 [myricetin],Concentration inhibiting S. aureus biofilm formation,[14],≤ 4 µM
O=C(CCc1ccc(O)cc1)c1c(O)cc(O)cc1O [phloretin],Concentration inhibiting S. aureus biofilm formation,[14],≤ 4 µM
prulonide A,Concentration showing cytotoxicity,breast cancer cell lines,1000 nM
